In data set [1] the test system is Human immunodeficiency virus 1. Description: Antiviral activity against HIV1 RES056 expressing reverse transcriptase K103N/Y181C double mutant infected in human MT4 cells assessed as protection against virus-induced cytopathic effect after 5 days by MTT assay. It counts as functional, organism-based. As to conditions: Human immunodeficiency virus 1, RES056, MT4, 120 h. Background: Damage to the host cells serves as the signal in cytopathic effect assays.

The subject of data set [2] is Human immunodeficiency virus 1. Description: Resistance index, ratio of EC50 for HIV1 RES056 harboring K103N/Y181C double mutant infected in human MT4 cells to EC50 for wild-type HIV1 3B infected in human MT4 cells. In kind it is functional.
In data set [3] the target is Human immunodeficiency virus type 1 reverse transcriptase (Human immunodeficiency virus 1, UniProt Q72547). The data set is described as follows: Inhibition of recombinant wild-type HIV1 reverse transcriptase p66/p51 RNA-dependent DNA polymerase activity assessed as reduction in biotin-dUTP incorporation using poly(rA)/oligo(dT)16 as template/primer after 40 mins by PicoGreen dye based spectrofluorometric analysis.

Data set [4] can be described thus: Cytotoxicity against human MT4 cells after 5 days by MTT assay. It counts as cell-based.
A short description of data set [5]: Selectivity index, ratio of CC50 for human MT4 cells to EC50 for HIV1 RES056 expressing reverse transcriptase K103N/Y181C double mutant. It counts as toxicity. As to conditions: read-out: Ratio CC50/EC50.
Data set [6] in a line: Selectivity index, ratio of CC50 for human MT4 cells to EC50 for HIV1 3B expressing wild type reverse transcriptase infected in human MT4 cells. As to conditions: read-out: Ratio CC50/EC50. It counts as toxicity, cell-based.
The test system of data set [7] is Human immunodeficiency virus 1. Description: Antiviral activity against HIV1 3B expressing wild type reverse transcriptase infected in human MT4 cells assessed as protection against virus-induced cytopathic effect after 5 days by MTT assay. The following applies: Human immunodeficiency virus 1, 3B, MT4, 120 h. It counts as functional, organism-based.
The nature of data set [8]: Prodrug conversion in human plasma assessed as RDEA427 formation by measuring remaining prodrug levels at 100 uM measured after 10 mins by LC-MS/MS analysis. It counts as ADME, cell-free.
Data set [9] can be described thus: Prodrug conversion in human plasma assessed as RDEA427 formation by measuring remaining prodrug levels at 100 uM measured after 30 mins by LC-MS/MS analysis. It counts as ADME, cell-free. The following applies: 0.5 h.
The test system of data set [10] is Human immunodeficiency virus 2. The data set is described as follows: Antiviral activity against HIV2 ROD infected in human MT4 cells after 5 days by MTT assay. As to conditions: ISOLATE ROD. In kind it is functional, organism-based.
A short description of data set [11]: Prodrug conversion in human plasma assessed as RDEA427 formation by measuring remaining prodrug levels at 100 uM measured after 120 mins by LC-MS/MS analysis. In kind it is ADME, cell-free. As to conditions: 2 h.
The nature of data set [12]: Prodrug conversion in human plasma assessed as RDEA427 formation at 100 uM by LC-MS/MS analysis. It counts as ADME, cell-free. As to conditions: TDE = time-dependent effect.
Data set [13] can be described thus: Prodrug conversion in human plasma assessed as RDEA427 formation by measuring remaining prodrug levels at 100 uM measured after 60 mins by LC-MS/MS analysis. It counts as ADME, cell-free. The following applies: 1 h.
Data set [14] can be described thus: Metabolic stability in human plasma assessed as parent compound remaining at 100 uM after 120 mins by LC-MS/MS analysis. It counts as ADME, cell-free. As to conditions: read-out: Stability.
Data set [15] in a line: Metabolic stability in human plasma assessed as parent compound remaining at 100 uM after 10 mins by LC-MS/MS analysis. It counts as ADME, cell-free. As to conditions: read-out: Stability.
The nature of data set [16]: Metabolic stability in human plasma assessed as parent compound remaining at 100 uM after 60 mins by LC-MS/MS analysis. In kind it is ADME, cell-free. The following applies: read-out: Stability.
Data set [17] can be described thus: Metabolic stability in human plasma assessed as parent compound remaining at 100 uM after 30 mins by LC-MS/MS analysis. In kind it is ADME, cell-free. As to conditions: read-out: Stability.

Active and inactive are the calls of the source. No cut-off for these calls is given here. A value given as a limit tells only on which side of the number the result lay.

Here are results for six compounds from ChEMBL document CHEMBL4219140, “First discovery of a potential carbonate prodrug of NNRTI drug candidate RDEA427 with submicromolar inhibitory activity against HIV-1 K103N/Y181C double mutant strain” (Bioorg Med Chem Lett, 2018).

Regarding `Cc1cc(C#N)cc(C)c1Oc1nc(Nc2ccc(C#N)cc2)nc2[nH]ccc12`, the EC50 (commonly the concentration that produces a half-maximal response) in [1] is 0.056 µM; in [7], 0.0029 µM. Moreover, in [2], the “Ratio EC50” value turned out to be 19.1. Further, the IC50 (commonly the midpoint of a concentration-inhibition curve) in [3] was 0.016 µM. In data set [4], the CC50 (usually the concentration giving 50% cytotoxicity) at 120 h is at least 1.24 µM. Moreover, the selectivity ratio in [5] is at least 22; in data set [6], at least 425.

On to `Cc1cc(C#N)cc(C)c1Oc1nc(Nc2ccc(C#N)cc2)nc2c1ccn2COC(=O)OC(C)C`, for which the EC50 in [1] is 0.15 µM; in [7], 0.0055 µM. Also, the Stability is on record as 87.8% in [8], 73.9% in data set [9], 56.4% in [11] and 53.3% in data set [13]. The result in [10] was inactive. Moreover, the “Ratio EC50” value in [2] stood at 27.3. For the same compound, the IC50 in [3] came out at 0.264 µM. In data set [4], this compound returned a half-maximal cytotoxic concentration (CC50) at 120 h of 1.05 µM. Moreover, the selectivity ratio in [5] is 7; in data set [6], 190. The Drug metabolism entry in data set [12] is recorded as “Tde”.

Consider `O=C1Nc2ccc(Cl)cc2[C@@](C#CC2CC2)(C(F)(F)F)O1` [EFAVIRENZ], for which the half-maximal effective concentration (EC50) turned out to be 0.14 µM in data set [1] and 0.0048 µM in data set [7]. The “Ratio EC50” value in data set [2] is listed as 30. The CC50 at 120 h in data set [4] is above 6.34 µM. Also, the selectivity ratio in data set [5] is above 44; in data set [6], above 1320.

Take `Cc1cc(C#N)cc(C)c1Oc1nc(Nc2ccc(C#N)cc2)nc(N)c1Br` [ETRAVIRINE]: the concentration giving a half-maximal response (EC50) in [1] worked out at 0.047 µM; in data set [7], 0.0039 µM. The “Ratio EC50” value in data set [2] amounted to 12. In data set [4], this compound came in with a CC50 at 120 h above 4.59 µM. The selectivity ratio was above 97 in data set [5] and above 1170 in data set [6].

For the compound `Cc1ccnc2c1NC(=O)c1cccnc1N2C1CC1` [NEVIRAPINE], the EC50 in data set [1] is above 15 µM; in data set [7], 0.44 µM. Besides, in [4], the CC50 at 120 h was above 15 µM. In addition, the results for the selectivity ratio in data set [5] and in data set [6] were 1 and above 34, respectively.

With `CC(C)[N+](C)(CCOC(=O)C1c2ccccc2Oc2ccccc21)C(C)C` [PROPANTHELINE], the remaining at 2 h, 100 µM in data set [14] is 0.5%. Besides, in data set [15], the remaining at 10 min, 100 µM is 54.8%. Also, the remaining at 1 h, 100 µM in [16] came out at 5.1%. Further, in [17], the remaining at 0.5 h, 100 µM came out at 19.4%.
